Reference: patent publication US6225307A, “Viral treatment” (priority 2000, dated 2001)

Assays:
[1] = molecular target: T1, HIV-1 protease (Human immunodeficiency virus type 1 group M subtype B, UniProt P04585); test: Protease inhibition assay (fluorometric method); type: biochemical
T1 construct: fluorometric HIV-1 protease assay; purchased Bachem
Experimental: Protease inhibition is evaluated using a fluorometric method. Enzyme (Bachem) is diluted to 116 μgm/ml in 50 mM NaOAC, 5 mM DTT, 2 mM EDTA, 10% glycerol (pH 5.0) and stored as 10 μl samples at -20° C., HIV protease substrates I (Molecular Probes) is diluted to a working concentration of 0.32 nmoles/μl. Enzyme (20 μl) and drug (20 μl) are added to each well of a microtiter plate as appropriate. Positive and negative control are evaluated in parallel. Fluorescence is quantitated on Labsystems Fluroskan II using 355 nm/460nm at 37° C. at time zero and at 30 minute intervals for 2 hours. In instances where autofluorescence precludes use of the fluorometric HIV-1 protease assay or confirmation of a result is required, an HPLC based protease assay can be employed.

[2] = test system: HIV-1 cell line, CEMRF; test: Long term in vitro study, CEMRF cells, reverse transcriptase analysis; type: cell-based; design: Reverse transcriptase data: unit not given here
Experimental: A microtiter-based reveres transcriptase (RT) reaction is utilized (Buckheit et al (1991) AIDS Research and Human Retroviruses 7:295-302). Tritiated thymidine triphosphate (NEN)(TTP) is resuspended in distilled water at 5 Ci/ml. Poly rA and oligo dT are prepared as a stock solution which is kept at -20° C. The RT reaction buffer is prepared fresh on a daily basis and consists of 125 μl 1M EGTA, 125 μl water, 125 μl Triton X-100, 50 μl Tris (pH 7.4), 50 μl MDDT, and 40 μl 1M MgCl2. These three solutions are mixed together in a ratio of 1 part TTP, 2.5 parts poly rA:oligo dT, 2.5 parts reaction buffer and 4 parts distilled water. Ten microliters of this reaction mixture is placed in a round bottom microtiter place and 15 μl of virus containing supernatant is added and mixed. The plate is incubated at 37° C. and incubated for 60 minutes. Following reaction, the reaction volume is spotted onto filter mats, washed 6 times for 5 minutes each in a 5% sodium phosphate buffer, 2 times for 1 minute each in distilled water, 2 times for 1 minute each in 70% ethanol, and then dried. The dried filter mat is placed in a plastic sample bag, Betaplate scintillation fluid is added and the bag is heat sealed. Incorporated radioactivity is quantified utilizing a Wallac Microbeta scintillation counter.
Acute infection of most established human cell lines with HIV- I results in the eventual establishment of a constitutive virus-producing chronically infected cell line. The cells can be passaged for long periods of time in culture without loss of virus production. These cells may be utilized to evaluate the effects of anti-HIV compounds on syncytium formation or to evaluate the effects of anti-HIV compounds on levels of virus production from these cells. […] Each of the cells contains an integrated HIV genome or provirus. Chronically infected CEM, H9 and U937 cell lines have been prepared and cultured by Southern Research Institute, Frederick Md. and are available from them.
CEM-SS cells chronically infected with HIV isolate, for example SKI (CEM-SKI) are cultured in RPM1640 tissue culture medium supplemented with 10% fetal bovine serum and antibiotics. Selection is performed by culturing the cells in the presence of the compound to be tested in T25 flasks. CEM-SKI or other infected cells with no added drug are used as the control cells. Cells are allowed to grow to a density of approximately 1×10^6 cells/ml and are then passaged at a 1:10 dilution. After a period of time, usually one week intervals of drug treatment, cells are evaluated to determine if the inhibitory activity of the compound has been affected by treatment of the cells with either compounds. The drug concentration in the flask is then increased two-fold and the cells maintained as above.
The cell populations contain integrated copies of the HIV genome and constitutively produce HIV at relatively high levels or are latently infected and only produce virus after stimulation with phorbol esters, tumor necrosis factor or IL6(U1 and ACH2). Reductions in virus products were observed when quantifying supernatant reverse transcriptase activity,
Toxicity Values are measured by XTT and activity of the compound in the tests is measured by a Reverse Transcriptase analysis.
A long term in vitro study of 3-hexahydro-3-ethyl-1-methyl-2-oxo-1H-azepin-3-yl)phenyl ester of 4-chlorophenyl carbamic acid against an HIV-1 cell line, CEMRF, was conducted at three different levels. The results with CEMRF cells were reported at weekly intervals. CEMRF is a chronic HIV cell line.

## CCC1(c2cccc(OC(=O)Nc3ccc(Cl)cc3)c2)CCCCN(C)C1=O (stereo not shown) [(4-chlorophenyl)-carbamic acid, 3-(hexahydro-3-ethyl-1-methyl-2-oxo-1H-azepin-3-yl) 2 phenyl ester]
[1]
  EC50: > 249 µM
[1]; 0.1 nM
  Protease inhibition, mean: 27.9 fluorometric units
  Protease inhibition, sample 1: 24.7 fluorometric units
  Protease inhibition, sample 2: 31.2 fluorometric units
[1]; 0.1 nM, read-out: % ND control
  remaining activity at 0.0001 µM: 98.2%
[1]; 1 nM
  Protease inhibition, mean: 27.4 fluorometric units
  Protease inhibition, sample 1: 27.4 fluorometric units
  Protease inhibition, sample 2: 27.5 fluorometric units
[1]; 1 nM, read-out: % ND control
  remaining activity at 0.001 µM: 96.4%
[1]; 10 nM
  Protease inhibition, mean: 26.8 fluorometric units
  Protease inhibition, sample 1: 28.5 fluorometric units
  Protease inhibition, sample 2: 25.1 fluorometric units
[1]; 10 nM, read-out: % ND control
  remaining activity at 0.01 µM: 94.2%
[1]; 100 nM
  Protease inhibition, mean: 30.0 fluorometric units
  Protease inhibition, sample 1: 29.3 fluorometric units
  Protease inhibition, sample 2: 30.7 fluorometric units
[1]; 100 nM, read-out: % ND control
  remaining activity at 0.1 µM: 105%
[1]; screened using a fluorometric method
  activity as a protease inhibitor: did not show activity
[2]; 7 μg/ml, Day 4
  Reverse transcriptase data: 1942
[2]; 7 μg/ml, Day 11
  Reverse transcriptase data: 1537
[2]; 7 μg/ml, Day 18
  Reverse transcriptase data: 1683
[2]; 7 μg/ml, Day 25
  Reverse transcriptase data: 1624
[2]; 7 μg/ml, Day 32
  Reverse transcriptase data: 1286
[2]; 7 μg/ml, Day 39
  Reverse transcriptase data: 1368
[2]; 7 μg/ml, Day 46
  Reverse transcriptase data: 1588
[2]; 7 μg/ml, Day 53
  Reverse transcriptase data: 1482
[2]; 7 μg/ml, Day 60
  Reverse transcriptase data: 1381
[2]; 7 μg/ml, Day 67
  Reverse transcriptase data: 1231
[2]; 7 μg/ml, Day 71
  Reverse transcriptase data: 1321
[2]; 7 μg/ml, Day 74
  Reverse transcriptase data: 1528
[2]; 7 μg/ml, Day 88
  Reverse transcriptase data: 1454
[2]; 7 μg/ml, Day 95
  Reverse transcriptase data: 1168
[2]; 7 μg/ml, Day 102
  Reverse transcriptase data: 1463
[2]; 7 μg/ml, Day 109
  Reverse transcriptase data: 1440
[2]; 15 μg/ml, Day 4
  Reverse transcriptase data: 1402
[2]; 15 μg/ml, Day 11
  Reverse transcriptase data: 1402
[2]; 15 μg/ml, Day 18
  Reverse transcriptase data: 1281
[2]; 15 μg/ml, Day 25
  Reverse transcriptase data: 1582
[2]; 15 μg/ml, Day 32
  Reverse transcriptase data: 1140
[2]; 15 μg/ml, Day 39
  Reverse transcriptase data: 1028
[2]; 15 μg/ml, Day 46
  Reverse transcriptase data: 1056
[2]; 15 μg/ml, Day 53
  Reverse transcriptase data: 1160
[2]; 15 μg/ml, Day 60
  Reverse transcriptase data: 1056
[2]; 15 μg/ml, Day 67
  Reverse transcriptase data: 1002
[2]; 15 μg/ml, Day 71
  Reverse transcriptase data: 1108
[2]; 15 μg/ml, Day 74
  Reverse transcriptase data: 1201
[2]; 15 μg/ml, Day 88
  Reverse transcriptase data: 1068
[2]; 15 μg/ml, Day 95
  Reverse transcriptase data: 1004
[2]; 15 μg/ml, Day 102
  Reverse transcriptase data: 1165
[2]; 15 μg/ml, Day 109
  Reverse transcriptase data: 1265
[2]; 30 μg/ml, Day 4
  Reverse transcriptase data: 650
[2]; 30 μg/ml, Day 11
  Reverse transcriptase data: 463
[2]; 30 μg/ml, Day 18
  Reverse transcriptase data: 221
[2]; 30 μg/ml, Day 25
  Reverse transcriptase data: 643
[2]; 30 μg/ml, Day 32
  Reverse transcriptase data: 462
[2]; 30 μg/ml, Day 39
  Reverse transcriptase data: 221
[2]; 30 μg/ml, Day 46
  Reverse transcriptase data: 149
[2]; 30 μg/ml, Day 53
  Reverse transcriptase data: 281
[2]; 30 μg/ml, Day 60
  Reverse transcriptase data: 248
[2]; 30 μg/ml, Day 67
  Reverse transcriptase data: 147
[2]; 30 μg/ml, Day 71
  Reverse transcriptase data: 201
[2]; 30 μg/ml, Day 74
  Reverse transcriptase data: 161
[2]; 30 μg/ml, Day 88
  Reverse transcriptase data: 249
[2]; 30 μg/ml, Day 95
  Reverse transcriptase data: 176
[2]; 30 μg/ml, Day 102
  Reverse transcriptase data: 197
[2]; 30 μg/ml, Day 109
  Reverse transcriptase data: 370
[2]; run through 222 days
  Reverse transcriptase data, continued test: data remained consistent
